Data as given in publication PMC2685802, “Daptomycin in experimental murine pneumococcal meningitis” (BMC Infectious Diseases, 2009).
Where two headings read alike, the source gives them in different places.

Key:
[1] = system: Streptococcus pneumoniae A 66.1 serotype 3 (Xen 10); type: in vivo, mice
Description: This study was approved by the Institutional Animal Care and Use Committee of the Mayo Clinic, Rochester, Minnesota. Ninety-six 25–30 gram immunocompetent hairless mice were divided into three treatment groups. Sixteen hours prior to treatment, mice were anesthetized using ketamine and xylazine (45 mg/kg and 5 mg/kg I.M., respectively) and 3 × 10^4 cfu of bacteria in a 20 μl volume were inoculated into the cisterna magna. The time of treatment was selected as the latest time point at which antimicrobial treatment could realistically lead to recovery. […] At 20 hours post infection an additional dose of vancomycin 50 mg/kg was given to the vancomycin-treated animals. Mice not receiving vancomycin at 20 hours were injected with an equal volume of saline. At 16, 20, and 24 hours post infection, 8, 40 and 48 animals, respectively were re anesthetized and cerebrospinal fluid (CSF) was collected by way of puncture from the cisterna magna (using a 28 G 1/2 needle 0.3 × 13 mm from BD Microlance). CSF white-blood cell count was determined and bacterial burden was quantified in CSF by plating serial 10-fold dilutions in sterile isotonic saline onto blood agar plates. Results were expressed as log10 cfu/ml; the detection limit was 20 cfu/ml of CSF. Following collection of CSF, animals were euthanized with a lethal dose of pentobarbital, their brains collected and placed in 10% neutral buffered formalin.
Bacterial concentrations between treatment groups at each time point were compared using the student t-test. Correlation analysis between log10 bacterial CSF titers and log10 photons/second was calculated using SPSS statistical software. For inflammation, neuronal necrosis, and apoptosis scores, statistical analysis included a nonparametric Kruskal-Wallis test followed by a Dunn's test comparing all treatment groups using a confidence level of 95%.

S. pneumoniae Xen10 = test: Time kill assay; type: cell-based, Streptococcus pneumoniae; conditions: daptomycin 1 μg/ml or vancomycin 2 μg/ml alone and with dexamethasone 100 μg/ml
From the text: Figure 1 Time kill assay. […] DP, daptomycin; VN, vancomycin; DX, dexamethasone.

[2] = Serum antibiotic concentration in mice after intraperitoneal dose (microbiological assay); type: in vivo; conditions: single dose, detection limit 0.5 μg/ml
Description: The 30 minute serum concentration of vancomycin or daptomycin in 25–30 gram immunocompetent hairless mice (Charles River Laboratories, Wilmington, MA) was determined following intraperitoneal injection of 40, 50 and 60 mg/kg vancomycin or 20, 30, 40 and 50 mg/kg daptomycin, respectively. Pharmacokinetic profiles were determined by injecting 50 mg/kg vancomycin or 25 mg/kg daptomycin intraperitoneally and obtaining serum samples 30, 60, 120, 180 and 240 minutes post injection. Drug activity was measured using a microbiological assay technique. Standard curves for serum drug level determination were performed by making drug dilutions in pooled mouse serum (Innovative Research, Incorporated, Southfield, MI). The reporter bacteria for the vancomycin and daptomycin bioassays were Bacillus subtilis and Micrococcus luteus, respectively. Zones of growth inhibition were measured to the nearest millimeter. The detection limit for both drugs was 0.5 μg/ml.

[3] = system: penicillin-resistant pneumococcal strains; conditions: cited from earlier work
From the text: Four studies of daptomycin treatment of experimental meningitis have been reported. […] Similarly, Gerber et al. reported bactericidal activity in a rabbit model of Staphyloco ...

[4] = human, 6 mg/kg q.d. intravenously (highest FDA-approved dose); no reference given; cited from earlier work
[5] = vancomycin 50 mg/kg intraperitoneally, bioassay with Bacillus subtilis

Compound	CSF titers at 24 hours post infection ([1]; mouse, in vivo)	drop of bacterial titers four hours after a single treatment ([1]; mouse, in vivo)	in vitro bactericidal activity, effect of dexamethasone (S. pneumoniae Xen10)	level at 4 h ([2]; hairless (immunocompetent), mouse, serum, ip, daptomycin 25 mg/kg intraperitoneally, bioassay with Micrococcus luteus)	level at 0.5 h ([2]; hairless (immunocompetent), mouse, serum, ip, daptomycin 25 mg/kg intraperitoneally, bioassay with Micrococcus luteus, read-out: serum concentration at 30 minutes)	release of [3H]choline (marker of cell wall lysis) ([3]; compared with ceftriaxone treatment)	penetration across inflamed meninges ([3]; rabbit, in vivo)	serum Cmax [4]	drop of bacterial titers four hours after a single treatment ([1]; CSF, mice, accompanied by 1 mg/kg of dexamethasone, daptomycin 25 mg/kg or vancomycin 50 mg/kg i.p.)	CSF titers at 24 hours post infection ([1]; mice, vancomycin 50 mg/kg at 16 and 20 hours or daptomycin 25 mg/kg at 16 hours, i.p., with dexamethasone 1 mg/kg every 6 hours)	serum level at 30 minutes [2, 5]	serum level at 3 hours [2, 5]
CCCCCCCCCC(=O)N[C@@H](Cc1c[nH]c2ccccc12)C(=O)N[C@H](CC(N)=O)C(=O)N[C@@H](CC(=O)O)C(=O)N[C@@H]1C(=O)NCC(=O)N[C@@H](CCCN)C(=O)N[C@@H](CC(=O)O)C(=O)N[C@H](C)C(=O)N[C@@H](CC(=O)O)C(=O)NCC(=O)N[C@H](CO)C(=O)N[C@@H]([C@H](C)CC(=O)O)C(=O)N[C@@H](CC(=O)c2ccccc2N)C(=O)O[C@@H]1C [daptomycin]	3.9 log10 cfu/ml	1.33 log10	not affected	16 µg/mL	127 µg/mL	negligible	6%	90 to 100 µg/mL	–	–	–	–
CN[C@H](CC(C)C)C(=O)N[C@H]1C(=O)N[C@@H](CC(N)=O)C(=O)N[C@H]2C(=O)N[C@H]3C(=O)N[C@H](C(=O)N[C@H](C(=O)O)c4cc(O)cc(O)c4-c4cc3ccc4O)[C@H](O)c3ccc(c(Cl)c3)Oc3cc2cc(c3O[C@@H]2O[C@H](CO)[C@@H](O)[C@H](O)[C@H]2O[C@H]2C[C@](C)(N)[C@H](O)[C@H](C)O2)Oc2ccc(cc2Cl)[C@H]1O [vancomycin]	–	–	not affected	–	–	–	–	–	0.43 log10	3.4 log10 cfu/ml	55 µg/mL	< 0.5 µg/mL
